Source: patent publication US10106778B2, “Selective targeting of cancer stem cells” (Whitehead Institute for Biomedical Research, priority 2012, dated 2018)

Assays:
Format in all cases: cell-based, human
[1] = test system: NAMEC-Tom-Ras and HMLE-GFP-Ras cells; assay: Co-mixed NAMEC-Tom-Ras (CSC-enriched) and HMLE-GFP-Ras (CSC-depleted) cells, kinase inhibition, FACS; conditions: dose response, co-mixed cells
Experimental: (§1) Kinase inhibitors and other chemical compounds were obtained from various sources listed below. These were dissolved or diluted in DMSO. To set up the screen, 75,000 NAMEC-Tom and 15,000 HMLE-GFP cells were seeded into each well of a 6-well tissue culture plate. The following day, spent media was replaced with 3 ml of fresh media. Inhibitors were added to achieve the desired range of concentrations. For control treatment, DMSO was added. Fresh media containing inhibitors were replaced daily during the six day period. For analysis, cells were trypsinized with 1 ml 0.15% trypsin, diluted with 1 ml serum-containing media and fixed with 1 ml of 4% paraformaldehyde. FACS analysis was performed to analyze the proportion of surviving cells relative to DMSO-treated control for NAMEC-Tom or HMLE-GFP cells. To test the effects of these inhibitors on CSCs and non-CSCs, NAMEC-Ras-Tom and […] were used in similar co-mixed experiments.
as §1, with “experiments. To assess the fraction of cells undergoing apoptosis, cells were exposure to agents for three days without fresh media and then analyzed with Annexin V-APC (BD Biosciences).” for “experiments.”
Having determined that NAMEC-Ras cells were enriched for CSCs, we mixed NAMEC-Ras cells labeled with tdTomato (NAMEC-Tom-Ras) and HMLE-Ras cells labeled with GFP (HMLE-GFP-Ras) and re-tested the effects of kinase inhibition as described above. […] In addition, these NAMEC-Tom-Ras cells were more resistant to paclitaxel (11.3 fold) and staurosporine (32.8 fold) than the corresponding HMLE-GFP-Ras cells used as controls (FIG. 3C).

[2] = test system: p-PLCγ1^Y783; assay: Western blot of PLCγ1 phosphorylation in NAMECs; conditions: 5 μM, within 30 min
Experimental: (§2) To obtain protein extracts, cells were scraped from culture dishes in chilled PBS, centrifuged at 450×g for 4 min at 4° C., washed again in PBS, and incubated for 20 min in ice cold lysis buffer containing freshly added protease inhibitors (0.5 mM phenylmethylsulfonyl fluoride, 10 μg/ml leupeptin, 2 μg/ml aprotonin). Lysates were cleared by centrifugation at 12,100×g, 4° C. for 10 min and the supernatant was snap frozen in liquid nitrogen. Protein concentrations were determined using Bradford Dye (Bio-Rad). 30 μg total protein was separated by SDS-PAGE on NuPAge gels (Invitrogen), and transferred to Hybond-P PVDF membrane (GE Healthcare). The membrane was probed with specific primary antibodies and antibody-protein complex detected by HRP-conjugated antibodies and ECL-Plus (Amersham Biosciences).
(§3) Protein levels of both phospholipase Cγ1 and 2 (PLCγ1 and PLCγ2), which transduce signals from PDGFRα/β to PKCα, were also elevated in these cells by an average of 4.57 and 2.38-fold, respectively (FIG. 4E). To test whether PLCγ is being activated by PDGFR through phosphorylation, NAMECs were treated with PDGFR inhibitors.

[3] = test system: p-PLCγ2^Y1217; assay: Western blot of PLCγ2 phosphorylation in NAMECs; conditions: 5 μM, within 30 min
Experimental: as §2, §3

[4] = test system: p-PKCα^S497 and p-PKCα^T638; assay: Western blot of PKCα phosphorylation in NAMECs
Experimental: as §2
We subsequently sought to determine whether PKCα activation was directly dependent upon PDGFR-PLCγ. Exposure of NAMECs to a PLCγ inhibitor (U73122) reduced active p-PKCα^S497 and p-PKCα^T638 by 1.3 and 3.1-fold respectively within 30 min, and 6.3 and 4.2-fold respectively by 60 min (FIG. 13C); total PKCα level was unchanged (FIG. 13C). The inhibition of PDGFR in NAMECs, similarly, led to a loss of PKCα phosphorylation (p-PKCα^S497: 2.8 fold, p-PKCα^T638: 5.9 fold), as illustrated once again by the loss of active p-PKCα^S497 and p-PKCα^T638 within 30 min, while total PKCα remained constant (FIG. 13D).

[5] = test system: p-FRA1^S265; assay: Western blot of FRA1 phosphorylation in NAMECs; conditions: applied to NAMECs for 30 min
Experimental: as §2
FRA1 is a member of the Fos family of transcription factors, which is also comprised of c-Fos, FosB and Fra2. Together with the Jun family of transcription factors composed of c-Jun, JunB and JunD, individual members of the Fos and Jun family associate with one another to form heterodimeric activator protein-1 (AP-1) complexes that bind and transcriptionally regulate target gene expression when phosphorylated (Eferl and Wagner, 2003).
We assessed whether the observed increased p-FRA1 activity in the mesenchymal cells could be further augmented by elevated ERK signaling during EMT. Accordingly, inhibition of ERK1/2 phosphorylation with a MEK inhibitor was able to decrease p-FRA1^S265 levels by 65% but not the levels of total FRA1 or p-c-Jun (FIG. 5G), confirming that ERK1/2 signaling promoted p-FRA1 activity.

[6] = test system: p-B-Raf, p-c-Raf, p-MEK1/2 and p-ERK1/2; assay: Western blot of MAPK/ERK signaling in NAMECs; conditions: 30 min
Experimental: as §2
We assessed whether mesenchymal cells contained higher Ras expression or activated Ras. […] We assessed whether enhanced ERK signaling in the mesenchymal cell state was primarily mediated through the activated PDGFR and PKCα signaling cascade, rather than through activation via a Ras-Raf pathway. To test this, we exposed NAMECs to PKCα-specific inhibitors for 30 min. This reduced p-B-Raf and p-c-Raf expression, and led to the loss of p-MEK1/2 and p-ERK1/2 (FIG. 5F). […] Therefore, the enhanced activity of ERK signaling during EMT was, in part, conferred by signaling through PDGFR and PKCα.

| SMILES | which cell type is more sensitive / selected against [1] | effect on p-PLCγ1^Y783 [2] | effect on p-PLCγ2^Y1217 [3] | effect on PKCα phosphorylation [4] | effect on phosphorylation of FRA1 [5] | effect on phospho-proteins of ERK signaling [6] |
| --- | --- | --- | --- | --- | --- | --- |
| COc1cc2ncnc(N3CCN(C(=O)Nc4ccc(Oc5ccccc5)cc4)CC3)c2cc1OC [PDGFR Inh III] | NAMEC-Ras-Tom cells were more sensitive | reduced | reduced | reduced phosphorylation of PKCα | blocked the phosphorylation of FRA1 | downregulation of B-Raf and C-Raf phosphorylation, and dampening ERK signaling |
| COc1cc2c(cc1OC)-c1[nH]nc(Nc3cccc(F)c3)c1C2 [PDGFR Inh IV] | NAMEC-Ras-Tom cells were more sensitive |  |  | reduced phosphorylation of PKCα | blocked the phosphorylation of FRA1 | downregulation of B-Raf and C-Raf phosphorylation, and dampening ERK signaling |
